For experiment [1], the target named is T1, Rat liver microsomal squalene synthase (Rattus norvegicus, UniProt Q02769).
T1 construct: Rat liver microsomes, the source of enzyme, were prepared; from tissue; host or cells: rat liver microsomes
T1 sequence (Q02769 1-416): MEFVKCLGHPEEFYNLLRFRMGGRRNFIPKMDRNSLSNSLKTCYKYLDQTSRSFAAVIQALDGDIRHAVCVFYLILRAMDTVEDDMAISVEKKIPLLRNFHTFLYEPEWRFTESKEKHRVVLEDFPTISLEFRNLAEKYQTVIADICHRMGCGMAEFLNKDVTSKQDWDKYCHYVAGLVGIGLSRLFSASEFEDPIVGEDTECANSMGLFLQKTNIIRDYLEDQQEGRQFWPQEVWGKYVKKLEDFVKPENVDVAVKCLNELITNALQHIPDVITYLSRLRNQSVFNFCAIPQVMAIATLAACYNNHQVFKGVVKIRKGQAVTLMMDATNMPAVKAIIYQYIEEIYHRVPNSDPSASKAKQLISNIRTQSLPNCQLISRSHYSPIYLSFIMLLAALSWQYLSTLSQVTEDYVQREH
Put plainly: In vitro inhibition of squalene synthase (rat liver microsomes, 3H-farnesyl diphosphate). Type of experiment: biochemical. The note with it: for inhibition at 10 µM: 10 μM (footnote *), read-out: % Inhibition at 10 μM (squalene synthase, values marked *); for inhibition at 1 µM: compared to controls with no test compound. On the procedure: In vitro inhibition of squalene synthase may be measured by the following procedure.
Rat liver microsomal squalene synthase activity was measured using radioactive farnesyl diphosphate as a substrate and quantitating squalene synthesis by counting the radioactive squalene formed.
Rat liver microsomes, the source of enzyme, were prepared according to the method of Gillies, P. J., et al., Exp. Molec. Pathol. 44: 329-339 (1986), a modification of the procedure of Erickson, S. K., and Cooper, A. D., Metabolism, 29: 991-996 (1980). Approximately 30 μg of microsomal protein was incubated for 10 minutes at 37° C. with 11 μM of ^3 H-farnesyl diphosphate, 49 mCi/mmol, and test compound in the presence of squalene (2 μL), Mg^++, KF, reduced B-nicotinamide adenine dinucleotide phosphate, dithiothreitol, and K2 PO4, pH 7.35, in a total volume of 200 μL. Oxygen was excluded from the closed incubation tube by degassing with nitrogen. The reaction was terminated by the addition of ethanolic KOH and after degassing with N2, the microsomal membranes were solubilized by heating at 60° C. for 30 minutes. The squalene was extracted into hexane, and the squalene was separated from all other radioactive molecules by passage over an activated alumina column. The solution was collected in scintillation vials, evaporated to dryness, liquid scintillation fluid was added, and the radioactivity was determined in a liquid scintillation counter. […]

Experiment [2] deals with T2, Rat brain protein farnesyltransferase (Rattus norvegicus, UniProt Q02293+Q04631).
T2 construct: The enzyme was purified according to Reiss, Y., et al., Cell, 62: 81-88 (1990), utilizing steps one through three; from tissue; host or cells: rat brain
Put plainly: In vitro inhibition of protein farnesyltransferase (biotin-lamin substrate, scintillation proximity assay). As to conditions: for inhibition at 10 µM: compared to uninhibited control; for inhibition at 1 µM: 1 μM (footnote *), read-out: % Inhibition at 1 μM (protein farnesyltransferase, values marked *). Type of experiment: biochemical. As for the experimental part:
In vitro inhibition of protein farnesyltransferase may be measured by the following procedure. (Procedures for determination of the inhibition of farnesylation of the oncogene protein Ras are described by Goldstein, et al., J. Biol. Chem., 266: 15575-15578 (1991) and by Singh in U.S. Pat. No. 5,245,061 both of which are incorporated herein by reference.)
Rat brain protein farnesyltransferase activity was measured using the biotin-lamin substrate (which is known to undergo farnesylation in a manner analogous to Ras protein) and radioactive farnesyl diphosphate provided by Amersham Life Science in their commercial scintillation proximity assay kit for the determination of farnesyltransferase. The enzyme was purified according to Reiss, Y., et al., Cell, 62: 81-88 (1990), utilizing steps one through three. The specific activity of the enzyme was approximately 10 nmol substrate farnesylated/mg enzyme/hour. […]

For `CN(Cc1cccc(Oc2ccccc2)c1)C(=O)[C@H]1[C@H](C(=O)O)[C@H](C(=O)N(C)Cc2cccc(Oc3ccccc3)c2)[C@H]1C(=O)O` [Example 19, (1α,2β,3β,4α)-1,3-Di(N-methyl-N-(3-phenoxybenzyl)aminocarbonyl)cyclobutane-2,4-dicarboxylic acid], the inhibition at 10 µM in experiment [1] is 52%; in experiment [2], 80%. `O=C(O)[C@H]1[C@H](C(=O)N(Cc2ccccc2)Cc2ccccc2)[C@H](C(=O)O)[C@H]1C(=O)N(Cc1ccccc1)Cc1ccccc1` [Example 33, (1α,2β,3β,4α)-1,3-Di[N,N-dibenzylaminocarbonyl]cyclobutane-2,4-dicarboxylic acid]: the inhibition at 10 µM in experiment [1] turned out to be 43%; in experiment [2], 64%. Regarding `CCCN(Cc1ccc(Oc2ccc3ccccc3c2)cc1)C(=O)C1C(C(=O)O)C(C(=O)N(CCC)Cc2ccc(Oc3ccc4ccccc4c3)cc2)C1C(=O)O` (stereo not drawn) [Example 58, (1α,2β,3β,4α)-1,3-Di{N-propyl-N-[4-(naphth-2-yloxy)benzyl]aminocarbonyl}cyclobutane-2,4-dicarboxylic acid], the inhibition at 1 µM in experiment [1] was found to be 50%; in experiment [2], 31%. Turning to `CN(Cc1cccc(Oc2ccc(F)cc2)c1)C(=O)[C@H]1[C@H](C(=O)O)[C@H](C(=O)N(C)Cc2cccc(Oc3ccc(F)cc3)c2)[C@H]1C(=O)O` [Example 22, (1α,2β,3β,4α)-1,3-Di[N-methyl-N-(3-(4-fluorophenoxy)benzyl)aminocarbonyl]cyclobutane-2,4-dicarboxylic acid], the inhibition at 10 µM was determined as 47% in experiment [1] and 78% in experiment [2].

In the case of `CN(Cc1ccc(Oc2ccc(F)cc2)cc1)C(=O)[C@H]1[C@H](C(=O)O)[C@H](C(=O)N(C)Cc2ccc(Oc3ccc(F)cc3)cc2)[C@H]1C(=O)O` [Example 21, (1α,2β,3β,4α)-1,3-Di(N-methyl-N-(4-(4-fluorophenoxy)benzyl)aminocarbonyl)cyclobutane-2,4-dicarboxylic acid], the inhibition at 10 µM in experiment [1] was determined as 33%; in experiment [2], 27%. The molecule `CCCN(Cc1ccc(Nc2ccccc2)cc1)C(=O)[C@H]1[C@H](C(=O)O)[C@H](C(=O)N(CCC)Cc2ccc(Nc3ccccc3)cc2)[C@H]1C(=O)O` [Example 63] displayed an inhibition at 1 µM in experiment [1] of 44%. For the same molecule, the inhibition at 10 µM in experiment [2] turned out to be 68%. The like results for `CCCN(Cc1ccc(Oc2ccco2)cc1)C(=O)C1C(C(=O)O)C(C(=O)N(CCC)Cc2ccc(Oc3ccco3)cc2)C1C(=O)O` (stereo not drawn) [Example 54] were, in that order, 23% and 59%. Turning to `O=C(O)[C@H]1[C@H](C(=O)N(Cc2ccc(Oc3ccccc3)cc2)CC2CCC2)[C@H](C(=O)O)[C@H]1C(=O)N(Cc1ccc(Oc2ccccc2)cc1)CC1CCC1` [Example 100, (1α,2β,3β,4α)-1,3-Di[N-cyclobutylmethyl-N-(4-phenoxybenzyl)aminocarbonyl]cyclobutane-2,4-dicarboxylic acid], the inhibition at 1 µM amounted to 46% in experiment [1] and 21% in experiment [2]. Regarding `O=C(O)[C@H]1[C@H](C(=O)N(Cc2ccc(F)cc2)Cc2ccc(Oc3ccccc3)cc2)[C@H](C(=O)O)[C@H]1C(=O)N(Cc1ccc(F)cc1)Cc1ccc(Oc2ccccc2)cc1` [Example 94, (1α,2β,3β,4α)-1,3-Di[N-(4-fluorobenzyl)-N-(4-phenoxybenzyl)aminocarbonyl]cyclobutane-2,4-dicarboxylic acid], testing at 1 µM in experiment [1] gave an inhibition of 20%. Further, the inhibition at 10 µM in experiment [2] was 99%. `COc1ccc(CCN(Cc2ccc(Oc3ccccc3)cc2)C(=O)[C@H]2[C@H](C(=O)O)[C@H](C(=O)N(CCc3ccc(OC)c(OC)c3)Cc3ccc(Oc4ccccc4)cc3)[C@H]2C(=O)O)cc1OC` [Example 77, (1α,2β,3β,4α)-1,3-Di [N-(4-phenoxybenzyl)-N-(3,4-dimethoxyphenethyl)aminocarbonyl]cyclobutane-2,4-dicarboxylic acid]: in experiment [1], the inhibition at 1 µM was determined as 23%. This molecule also gave an inhibition at 10 µM in experiment [2] of 48%. `CN(c1ccc(-c2ccccc2)cc1)C(=O)[C@H]1[C@H](C(=O)O)[C@H](C(=O)N(C)c2ccc(-c3ccccc3)cc2)[C@H]1C(=O)O` [Example 23, (1α,2β,3β,4α)-1,3-Di(N-methyl-N-biphenylaminocarbonyl)cyclobutane-2,4-dicarboxylic acid]: the inhibition at 10 µM in experiment [1] is 25%. Take `CCCN(Cc1ccc(Oc2ccccc2)cc1)C(=O)[C@H]1[C@H](C(=O)O)[C@H](C(=O)N(CCC)Cc2ccc(Oc3ccccc3)cc2)[C@H]1C(=O)O` [Example 18, (1α,2β,3β,4α)-1,3-Di(N-propyl-N-(4-phenoxybenzyl)aminocarbonyl)cyclobutane-2,4-dicarboxylic acid]: the inhibition at 10 µM in experiment [1] stood at 89%; in experiment [2] it was 55%. As to `CCCN(CCc1ccc(Oc2ccccc2)cc1)C(=O)C1C(C(=O)O)C(C(=O)N(CCC)CCc2ccc(Oc3ccccc3)cc2)C1C(=O)O` (stereo not drawn) [Example 67, (1α,2β,3β,4α)-1,3-Di[N-propyl-N-(2-(4-phenoxyphenyl)ethyl)aminocarbonyl]cyclobutane-2,4-dicarboxylic acid], the inhibition at 1 µM was found to be 47% in experiment [1] and 61% in experiment [2].

Regarding `O=C(O)C1C(C(=O)N(CCSCc2ccccc2)Cc2ccc(Oc3ccccc3)cc2)C(C(=O)O)C1C(=O)N(CCSCc1ccccc1)Cc1ccc(Oc2ccccc2)cc1` (stereo not drawn) [Example 71, (1α,2β,3β,4α)-1,3-Di[N-(2-benzylthioethyl)-N-(4-phenoxybenzyl)aminocarbonyl]cyclobutane-2,4-dicarboxylic acid], the values for the inhibition at 1 µM in experiment [1] and in experiment [2] were 25% and 32%, respectively. For the molecule `CCCCN(Cc1ccc(Oc2ccccc2)cc1)C(=O)[C@H]1[C@H](C(=O)O)[C@H](C(=O)N(CCCC)Cc2ccc(Oc3ccccc3)cc2)[C@H]1C(=O)O` [Example 27, (1α,2β,3β,4α)-1,3-Di(N-butyl-N-(4-phenoxybenzyl)aminocarbonyl)cyclobutane-2,4-dicarboxylic acid], in experiment [1], the inhibition at 1 µM is 35%. Also, the inhibition at 10 µM in experiment [2] was found to be 69%.

Consider `C[C@H](c1cccc2ccccc12)N(Cc1ccc(Oc2ccccc2)cc1)C(=O)[C@H]1[C@H](C(=O)O)[C@H](C(=O)N(Cc2ccc(Oc3ccccc3)cc2)[C@H](C)c2cccc3ccccc23)[C@H]1C(=O)O` [Example 96, (1α,2β,3β,4α)-1,3-Di[N-((2R)-2-(1-naphthyl)eth-2-yl) -N-(4-phenoxybenzyl)aminocarbonyl]cyclobutane-2,4-dicarboxylic acid], for which, in experiment [2], the inhibition at 1 µM was 71%. Regarding `O=C(O)[C@H]1[C@H](C(=O)N(Cc2ccc(Oc3ccccc3)cc2)Cc2ccc(Oc3ccccc3)cc2)[C@H](C(=O)O)[C@H]1C(=O)N(Cc1ccc(Oc2ccccc2)cc1)Cc1ccc(Oc2ccccc2)cc1` [Example 20, (1α,2β,3β,4α)-1,3-Di(N,N-di(4-phenoxybenzyl)aminocarbonyl)cyclobutane-2,4-dicarboxylic acid], the inhibition at 10 µM in experiment [1] stood at 41%.

For `C[C@H](c1ccccc1)N(Cc1ccc(Oc2ccccc2)cc1)C(=O)[C@H]1[C@H](C(=O)O)[C@H](C(=O)N(Cc2ccc(Oc3ccccc3)cc2)[C@H](C)c2ccccc2)[C@H]1C(=O)O` [Example 90], the inhibition at 1 µM in experiment [2] worked out at 66%. Consider `O=C(O)[C@H]1[C@H](C(=O)N2CC=C(c3ccc(Oc4ccccc4)cc3)CC2)[C@H](C(=O)O)[C@H]1C(=O)N1CC=C(c2ccc(Oc3ccccc3)cc2)CC1` [Example 92, (1α,2α,3β,4β)-1,3-Di[4-(4-phenoxyphenyl)-1,2,3,6-tetrahydropyridin-1-ylcarbonyl]cyclobutane-2,4-dicarboxylic acid], for which the inhibition at 1 µM in experiment [2] was 45%.

(Values after US5631401A, “Inhibitors of protein farnesyltransferase and squalene synthase” (Abbott Laboratories, priority 1995, dated 1997).)
